For one assay, the system named is A375 cells. Briefly: MTT cytotoxicity assay, A375 melanoma cells. Type of assay: cell-based. Conditions: Homo sapiens, A-375; MTT test, 72 h; read-out: A375 IC50 (μM) ± SD. How it is done:
(§1) The cytotoxic profile of 19 and 27 was assessed on a wider panel of human tumor cell lines including also examples of breast (MCF-7), cervical (A431), colorectal (HCT-15), and ovarian (2008) cancers as well as melanoma (A375), besides lung (A549) and pancreatic (BxPC3) cancer cells. IC50 values, calculated from the dose-survival curves obtained after 72 h of drug treatment from the MTT test, are reported in Table 2. […] Both compounds were endowed with a cytotoxic potency higher than that of SU, eliciting IC50 values in the low micromolar range.
(§2) All compounds, except derivative 27, were dissolved in DMSO just before the experiment, and a calculated amount of drug solution was added to the cell growth medium to a final solvent concentration of 0.5%, which had no discernible effect on cell killing. Compound 27 was dissolved in a 0.9% NaCl solution just before the experiment.
(§3) Human lung (A549), breast (MCF-7), pancreas (BxPC3), and colon (LoVo) carcinoma cell lines along with melanoma (A375) were obtained from American Type Culture Collection (ATCC, Rockville, MD). Human non-tumor embryonic kidney HEK293 cells were obtained from European Collection of Cell Cultures (ECACC, Salisbury, UK). Human cervical carcinoma A431cells were kindly provided by Prof. F. Zunino (Division of Experimental Oncology B, Istituto Nazionale dei Tumori, Milan, Italy). Human ovarian cancer 2008 cells were kindly provided by Prof. G. Marverti (Dept. of Biomedical Science of Modena University, Italy). […]
(§4) The growth inhibitory effect towards human cell lines was evaluated by means of MTT (tetrazolium salt reduction) assay. […] After overnight incubation, the inhibition of cell growth induced by the tested complexes was detected by measuring the absorbance of each well at 570 nm using a Bio-Rad 680 microplate reader (Bio-Rad, Hercules, CA). Mean absorbance for each drug dose was expressed as a percentage of the control untreated well absorbance and plotted vs drug concentration.
A general note: Tetrazolium dyes change colour on reduction, which living cells bring about.

The test system of the next assay is BxPC3 cells. Put plainly: MTT cytotoxicity assay, BxPC3 pancreatic adenocarcinoma cells. The format is cell-based, human. Conditions: for IC50: Homo sapiens, BXPC-3, MTT test, 72 h of drug treatment, read-out: BxPC3 IC50 (μM) ± SD. The procedure: Compounds active against at least one kinase among EGFR and class III RTKs were evaluated for their cytotoxic properties against two different human cancer cell lines, namely non small cells A549 lung cancer cells (sensitive to EGFR inhibitors)[46] and pancreatic BxPC3 adenocarcinoma (sensitive to both PDGFRβ and EGFR inhibitors)[47][48] cells. […] The results, expressed as IC50 values (μM) calculated from the dose-survival curves obtained after 72 h of drug treatment from the MTT test, are reported in Table 1.
as §2
Human lung (A549), breast (MCF-7), pancreas (BxPC3), and colon (LoVo) carcinoma cell lines along with melanoma (A375) were obtained from American Type Culture Collection (ATCC, Rockville, MD). Human non-tumor embryonic kidney HEK293 cells were obtained from European Collection of Cell Cultures (ECACC, Salisbury, UK). Human cervical carcinoma A431cells were kindly provided by Prof. F. Zunino (Division of Experimental Oncology B, Istituto Nazionale dei Tumori, Milan, Italy). Human ovarian cancer 2008 cells were kindly provided by Prof. G. Marverti (Dept. of Biomedical Science of Modena University, Italy). Cell lines were maintained in the logarithmic phase at 37 °C in a 5% carbon dioxide atmosphere using the following culture media containing 10% fetal calf serum (Euroclone, Milan, Italy), antibiotics (50 units ∙ mL^−1 penicillin and 50 μg ∙ mL^−1 streptomycin) and 2 mM l-glutamine: i) RPMI-1640 medium (Euroclone) for MCF-7, A431, BxPC3 and 2008 cells; ii) F-12 HAM’S (Sigma Chemical Co.) for A549 and LoVo cells; iii) D-MEM medium (Euroclone) for HEK293 cells.
The growth inhibitory effect towards human cell lines was evaluated by means of MTT (tetrazolium salt reduction) assay. Briefly, 3–8 ∙ 10^3 cells/well, dependent upon the growth characteristics of the cell line, were seeded in 96-well microplates in growth medium (100 μL) and then incubated at 37 °C in a 5% carbon dioxide atmosphere. After 24 h, the medium was removed and replaced with a fresh one containing the test compound at the appropriate concentration. Triplicate cultures were established for each treatment. After 72 h, each well was treated with 10 μL of a 5 mg ∙ mL-1 MTT (3-(4,5-dimethylthiazol-2-yl)-2,5-diphenyltetrazolium bromide) saline solution, and after 5 h additional incubation, 100 μL of a sodium dodecylsulfate (SDS) solution in HCl 0.01 M were added. After overnight incubation, the inhibition of cell growth induced by the tested complexes was detected by measuring the absorbance of each well at 570 nm using a Bio-Rad 680 microplate reader (Bio-Rad, Hercules, CA). Mean absorbance for each drug dose was expressed as a percentage of the control untreated well absorbance and plotted vs drug concentration.

The subject of the next assay is MCF-7 cells. Briefly: MTT cytotoxicity assay, MCF-7 breast cancer cells. The format is cell-based. Conditions: Homo sapiens, MCF7; MTT test, 72 h; read-out: MCF-7 IC50 (μM) ± SD. The procedure: as §1, §2, §3, §4
For another assay, the target named is T1, PDGFRα (Homo sapiens, UniProt P16234).
T1 construct: purchased DiscoverX (KinomeScan service)
T1 sequence (P16234 24-1089): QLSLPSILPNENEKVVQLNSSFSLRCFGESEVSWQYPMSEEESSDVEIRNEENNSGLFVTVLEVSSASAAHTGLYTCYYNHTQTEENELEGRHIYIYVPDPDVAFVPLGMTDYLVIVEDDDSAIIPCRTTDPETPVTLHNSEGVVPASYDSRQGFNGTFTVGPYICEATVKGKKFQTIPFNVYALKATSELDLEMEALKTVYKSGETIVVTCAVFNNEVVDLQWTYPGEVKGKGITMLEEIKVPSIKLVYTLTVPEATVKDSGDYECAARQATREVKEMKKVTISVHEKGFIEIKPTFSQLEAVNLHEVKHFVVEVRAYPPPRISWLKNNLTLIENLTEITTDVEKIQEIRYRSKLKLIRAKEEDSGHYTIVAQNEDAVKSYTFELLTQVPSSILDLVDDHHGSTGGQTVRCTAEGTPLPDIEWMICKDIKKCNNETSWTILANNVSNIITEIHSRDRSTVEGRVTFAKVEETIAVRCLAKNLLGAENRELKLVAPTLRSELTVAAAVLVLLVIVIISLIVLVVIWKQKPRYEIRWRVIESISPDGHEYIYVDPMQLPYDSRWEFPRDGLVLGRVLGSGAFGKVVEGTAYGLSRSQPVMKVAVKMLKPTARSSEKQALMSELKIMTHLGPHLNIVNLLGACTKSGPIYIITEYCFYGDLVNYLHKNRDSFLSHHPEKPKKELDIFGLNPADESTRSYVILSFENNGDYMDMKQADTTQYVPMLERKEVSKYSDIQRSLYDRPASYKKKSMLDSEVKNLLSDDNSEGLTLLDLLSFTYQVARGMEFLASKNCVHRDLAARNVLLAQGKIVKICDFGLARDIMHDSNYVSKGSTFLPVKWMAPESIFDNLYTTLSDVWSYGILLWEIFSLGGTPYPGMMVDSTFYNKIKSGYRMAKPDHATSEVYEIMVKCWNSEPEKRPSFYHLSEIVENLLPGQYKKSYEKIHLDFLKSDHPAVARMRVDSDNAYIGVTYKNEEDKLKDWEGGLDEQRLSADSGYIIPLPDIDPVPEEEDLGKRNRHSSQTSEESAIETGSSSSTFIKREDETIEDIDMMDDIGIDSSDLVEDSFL
Put plainly: KinomeScan Kd determination, PDGFRα. Type of assay: binding. Conditions: for KdRTK/KdKIT, PDGFRα: Kd PDGFRα over Kd KIT; for Kd: KinomeScan. The procedure:
The compounds were evaluated using the KinomeScan™ platform (http://www.discoverx.com/services/drug-discovery-development-services/kinase-profiling/kinomescan), that measures the ability of the test compound to disrupt the complex between a high affinity ATP-mimic probe immobilized on a solid support and the kinase of interest. The KinomeScan is a very helpful technology for the fast and reliable screening of a number of compounds against a wide and customizable panel of kinases. Besides, it is not based on the use of hazardous radioactive ^32P-ATP and has a very low rate of false positive (<1%)[44]. The screening platform outputs a “Percent of Control” (POC) value, statistically correlated to the dissociation constant (Kd) value (http://www.discoverx.com/tools-resources/leadhunter-study-reports-data-analysis), for each pair of kinase/ligand. The POC is calculated as reported in equation (1): […]
The ability of compounds 19 and 27 to bind the class III RTK members was measured (Table 2; see also Figs S3 and S4 for dose/response curves).
Figure S3. Dose/response curve for compound 19 against tested kinases for Kd determination. The amount of kinase measured by qPCR (Signal; y-axis) is plotted against the corresponding compound concentration in nM in log10 scale (x-axis). Data points marked with an "x" were not used for Kd determination.
(1 picture or pasted object on this page, not shown here)
Figure S4. Dose/response curve for compound 27 against tested kinases for Kd

The structures appear in SMILES notation.

As for `O=C(Nc1ccccc1)Nc1ccc(Nc2cc(-c3ccccc3)ncn2)cc1` [Compound 19], the half-maximal inhibitory concentration (IC50) (commonly the concentration that inhibits the measured activity by half) in the assay on A375 cells was 6.41 ± 2.02 µM; with BxPC3 cells, 0.77 ± 0.21 µM; in the assay on MCF-7 cells it was 1.23 ± 0.89 µM. For the same molecule, the “KdRTK/KdKIT, PDGFRα” value at PDGFRα was found to be 44. Also, the Kd (usually a measure of binding affinity in units of concentration) on PDGFRα was 960 nM.

For `O=C(CN1CCOCC1)Nc1cccc(-c2cc(Nc3ccc(NC(=O)Nc4ccccc4)cc3)ncn2)c1` [Compound 27], the IC50 in the assay with A375 cells worked out at 5.56 ± 1.39 µM; in the assay with BxPC3 cells it was 0.81 ± 0.32 µM; in the assay on MCF-7 cells, 1.55 ± 0.75 µM. The “Potency relative to SU (BxPC3)” value with BxPC3 cells (ratio between IC50 of sunitinib and IC50 of tested compound, BxPC3) is 6. Further, the “Potency improvement Kd19/Kd27, PDGFRα” value at PDGFRα (27 versus 19) came out at 8.7. Besides, the “KdRTK/KdKIT, PDGFRα” value on PDGFRα is on record as 11. Further, the affinity on PDGFRα, expressed as Kd, was 110 nM.

The record behind these values is PMC4645160, “Targeting kinases with anilinopyrimidines: discovery of N-phenyl-N’-[4-(pyrimidin-4-ylamino)phenyl]urea derivatives as selective inhibitors of class III receptor tyrosine kinase subfamily” (Scientific Reports, 2015).
